Assay results taken from patent US6737383B1, “Herbicidal oxadiazolidines” (priority 1999, dated 2004).

Columns and labels:
[1] = system: bedstraw; experiment: Test B pre/postemergence bedstraw; assay type: in vivo, Galium aparine
Outline: (§1)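 Response is a visual 0-to-10 score relative to untreated plants, where 0 means no effect and 10 means complete control, taken twelve to sixteen days after application. Treatments went onto soil at planting and onto foliage of 1- to 4-leaf plants, using a surfactant-containing non-phytotoxic solvent.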

[2] = system: blackgrass; experiment: Test B pre/postemergence blackgrass; assay type: in vivo, Alopecurus myosuroides
Outline: as §1

[3] = system: surinam grass; experiment: Test B pre/postemergence surinam grass; assay type: in vivo, Brachiaria decumbens
Outline: as §1

[4] = system: cocklebur; experiment: Test B pre/postemergence cocklebur; assay type: in vivo, Xanthium strumarium
Outline: as §1

[5] = system: corn; experiment: Test B pre/postemergence corn; assay type: in vivo, Zea mays
Outline: as §1

[6] = system: crabgrass; experiment: Test B pre/postemergence crabgrass; assay type: in vivo, Digitaria sanguinalis
Outline: as §1

[7] = system: giant foxtail; experiment: Test B pre/postemergence giant foxtail; assay type: in vivo, Setaria faberii
Outline: as §1

[8] = system: morningglory; experiment: Test B pre/postemergence morningglory; assay type: in vivo, Ipomoea hederacea
Outline: as §1

[9] = system: pigweed; experiment: Test B pre/postemergence pigweed; assay type: in vivo, Amaranthus retroflexus
Outline: as §1

[10] = system: rape; experiment: Test B pre/postemergence rape; assay type: in vivo, Brassica napus
Outline: as §1

[11] = system: soybean; experiment: Test B pre/postemergence soybean; assay type: in vivo, Glycine max
Outline: as §1

[12] = system: sugar beet; experiment: Test B pre/postemergence sugar beet; assay type: in vivo, Beta vulgaris
Outline: as §1

[13] = system: velvetleaf; experiment: Test B pre/postemergence velvetleaf; assay type: in vivo, Abutilon theophrasti
Outline: as §1

[14] = system: wheat; experiment: Test B pre/postemergence wheat; assay type: in vivo, Triticum aestivum
Outline: as §1

[15] = system: wild oat; experiment: Test B pre/postemergence wild oat; assay type: in vivo, Avena fatua
Outline: as §1

[16] = system: purple nutsedge; experiment: Test B pre/postemergence purple nutsedge; assay type: in vivo, Cyperus rotundus
Outline: as §1

[17] = system: rice; experiment: Test B flood test rice; assay type: in vivo, Oryza sativa
Outline: (§2)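 Flood test on plants grown to the 2-leaf stage; treated plants kept in greenhouse twelve to sixteen days, then visually rated against controls on a 0 (no effect) to 10 (complete control) scale.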

[18] = system: smallflower flatsedge; experiment: Test B flood test smallflower flatsedge; assay type: in vivo, Cyperus difformis
Outline: as §2

[19] = system: duck salad; experiment: Test B flood test duck salad; assay type: in vivo, Heteranthera limosa
Outline: as §2

[20] = system: bamyardgrass; experiment: Test B flood test barnyardgrass; assay type: in vivo, Echinochloa crus-galli
Outline: as §2

[21] = Postemergence, Rate 62 g/ha, scale 0 to 10, 0 is no effect, 10 is complete control
[22] = Postemergence, Rate 250 g/ha, scale 0 to 10, 0 no effect, 10 complete control
[23] = Preemergence, Rate 62 g/ha, scale 0 to 10, 0 is no effect, 10 is complete control
[24] = Preemergence, Rate 125 g/ha, scale 0 to 10 (0 no effect, 10 complete control)
[25] = Preemergence, Rate 250 g/ha, scale of 0 to 10 where 0 is no effect and 10 is complete control
[26] = Preemergence, Rate 500 g/ha, scale 0 (no effect) to 10 (complete control)
[27] = Rate 125 g/ha, Postemergence, scale 0 to 10, 0 no effect, 10 complete control
[28] = Rate 500 g/ha, Postemergence, 0 to 10 scale (0 no effect, 10 complete control)
[29] = Rate 125 g/ha, Postemergence section (flood test species), scale 0 to 10, 0 no effect, 10 complete control
[30] = Rate 500 g/ha, Postemergence section of Table B, 0 to 10 scale (0 no effect, 10 complete control)
[31] = flood test, listed under Postemergence, Rate 250 g/ha, scale 0 to 10, 0 no effect, 10 complete control

`CC(C)N(C(=O)n1oc(=O)n(-c2ccccc2C(F)(F)F)c1=O)c1ccc(F)cc1` [Compound 15] was tested, and the “Bedstraw plant response rating” value [1, 21] was 0, the “Bedstraw plant response rating” value [1, 22] was 0 and the “Plant response rating, Bedstraw” value [1, 23] was 0. The “Plant response rating, Bedstraw” value [1, 24] was 0, the “Plant response rating, Bedstraw” value [1, 25] was 0 and the “Bedstraw plant response rating” value [1, 26] was 7. The “Bedstraw plant response rating” value [1, 27] was 0, the “Bedstraw plant response rating” value [1, 28] was 4 and the “Blackgrass plant response rating” value [2, 21] was 0. For the same compound, the “Blackgrass plant response rating” value [2, 22] was 0, the “Plant response rating, Blackgrass” value [2, 23] was 0 and the “Plant response rating, Blackgrass” value [2, 24] was 0. For the same compound, the “Plant response rating, Blackgrass” value [2, 25] was 0, the “Blackgrass plant response rating” value [2, 26] was 0 and the “Blackgrass plant response rating” value [2, 27] was 0. The “Blackgrass plant response rating” value [2, 28] was 3, the “B. signalgrass plant response rating” value [3, 21] was 0 and the “B. signalgrass plant response rating” value [3, 22] was 0. The “Plant response rating, B. signalgrass” value [3, 23] was 0, the “Plant response rating, B. signalgrass” value [3, 24] was 0 and the “Plant response rating, B. signalgrass” value [3, 25] was 0. For the same compound, the “B. signalgrass plant response rating” value [3, 26] was 0, the “B. signalgrass plant response rating” value [3, 27] was 0 and the “B. signalgrass plant response rating” value [3, 28] was 0. The “Cocklebur plant response rating” value [4, 21] was 0, the “Cocklebur plant response rating” value [4, 22] was 5 and the “Plant response rating, Cocklebur” value [4, 23] was 0. For the same compound, the “Plant response rating, Cocklebur” value [4, 24] was 0, the “Cocklebur plant response rating” value [4, 26] was 0 and the “Cocklebur plant response rating” value [4, 27] was 0. For the same compound, the “Cocklebur plant response rating” value [4, 28] was 8, the “Corn plant response rating” value [5, 21] was 0 and the “Corn plant response rating” value [5, 22] was 0. For the same compound, the “Plant response rating, Corn” value [5, 23] was 0, the “Plant response rating, Corn” value [5, 24] was 0 and the “Corn plant response rating” value [5, 26] was 0. The “Corn plant response rating” value [5, 27] was 0, the “Corn plant response rating” value [5, 28] was 0 and the “Crabgrass plant response rating” value [6, 21] was 0. The “Crabgrass plant response rating” value [6, 22] was 3, the “Plant response rating, Crabgrass” value [6, 23] was 0 and the “Plant response rating, Crabgrass” value [6, 24] was 2. For the same compound, the “Crabgrass plant response rating” value [6, 26] was 10, the “Crabgrass plant response rating” value [6, 27] was 1 and the “Crabgrass plant response rating” value [6, 28] was 8. The “Giant foxtail plant response rating” value [7, 21] was 0, the “Giant foxtail plant response rating” value [7, 22] was 0 and the “Plant response rating, Giant foxtail” value [7, 23] was 6. The “Plant response rating, Giant foxtail” value [7, 24] was 8, the “Giant foxtail plant response rating” value [7, 26] was 10 and the “Giant foxtail plant response rating” value [7, 27] was 0. The “Giant foxtail plant response rating” value [7, 28] was 0, the “Morningglory plant response rating” value [8, 21] was 2 and the “Morningglory plant response rating” value [8, 22] was 6. For the same compound, the “Plant response rating, Morningglory” value [8, 23] was 0, the “Plant response rating, Morningglory” value [8, 24] was 0 and the “Morningglory plant response rating” value [8, 26] was 0. For the same compound, the “Morningglory plant response rating” value [8, 27] was 2, the “Morningglory plant response rating” value [8, 28] was 7 and the “Redroot pigweed plant response rating” value [9, 21] was 0. For the same compound, the “Redroot pigweed plant response rating” value [9, 22] was 2, the “Plant response rating, Redroot pigweed” value [9, 23] was 0 and the “Plant response rating, Redroot pigweed” value [9, 24] was 0. For the same compound, the “Plant response rating, Redroot pigweed” value [9, 25] was 0, the “Redroot pigweed plant response rating” value [9, 26] was 8 and the “Redroot pigweed plant response rating” value [9, 27] was 0. For the same compound, the “Redroot pigweed plant response rating” value [9, 28] was 6, the “Rape plant response rating” value [10, 21] was 0 and the “Rape plant response rating” value [10, 22] was 0. For the same compound, the “Plant response rating, Rape” value [10, 23] was 0, the “Plant response rating, Rape” value [10, 24] was 0 and the “Plant response rating, Rape” value [10, 25] was 0. The “Rape plant response rating” value [10, 26] was 0, the “Rape plant response rating” value [10, 27] was 0 and the “Rape plant response rating” value [10, 28] was 0. The “Soybean plant response rating” value [11, 21] was 2, the “Soybean plant response rating” value [11, 22] was 2 and the “Plant response rating, Soybean” value [11, 23] was 0. For the same compound, the “Plant response rating, Soybean” value [11, 24] was 0, the “Soybean plant response rating” value [11, 26] was 0 and the “Soybean plant response rating” value [11, 27] was 2. For the same compound, the “Sugarbeets plant response rating” value [12, 21] was 0, the “Sugarbeets plant response rating” value [12, 22] was 0 and the “Plant response rating, Sugarbeets” value [12, 23] was 0. For the same compound, the “Plant response rating, Sugarbeets” value [12, 24] was 0, the “Plant response rating, Sugarbeets” value [12, 25] was 3 and the “Sugarbeets plant response rating” value [12, 26] was 6. The “Sugarbeets plant response rating” value [12, 27] was 0, the “Velvetleaf plant response rating” value [13, 21] was 0 and the “Velvetleaf plant response rating” value [13, 22] was 0. For the same compound, the “Plant response rating, Velvetleaf” value [13, 23] was 0, the “Plant response rating, Velvetleaf” value [13, 24] was 0 and the “Velvetleaf plant response rating” value [13, 26] was 0. The “Velvetleaf plant response rating” value [13, 27] was 0, the “Wheat plant response rating” value [14, 21] was 0 and the “Wheat plant response rating” value [14, 22] was 0. For the same compound, the “Plant response rating, Wheat” value [14, 23] was 0, the “Plant response rating, Wheat” value [14, 24] was 0 and the “Plant response rating, Wheat” value [14, 25] was 0. The “Wheat plant response rating” value [14, 26] was 0, the “Wheat plant response rating” value [14, 27] was 0 and the “Wild oats plant response rating” value [15, 21] was 0. The “Wild oats plant response rating” value [15, 22] was 0, the “Plant response rating, Wild oats” value [15, 24] was 0 and the “Plant response rating, Wild oats” value [15, 25] was 0. For the same compound, the “Wild oats plant response rating” value [15, 26] was 0, the “Wild oats plant response rating” value [15, 27] was 0 and the “Nutsedge plant response rating” value [16, 21] was 0. For the same compound, the “Nutsedge plant response rating” value [16, 22] was 0, the “Plant response rating, Nutsedge” value [16, 23] was 0 and the “Plant response rating, Nutsedge” value [16, 24] was 0. The “Nutsedge plant response rating” value [16, 26] was 0, the “Nutsedge plant response rating” value [16, 27] was 0 and the “Nutsedge plant response rating” value [16, 28] was 0. The “Rice plant response rating” value [17, 21] was 0, the “Rice plant response rating” value [17, 29] was 0 and the “Rice plant response rating” value [17, 30] was 0. The “Rice plant response rating” value [17, 31] was 0, the “S. Flatsedge plant response rating” value [18, 21] was 0 and the “S. Flatsedge plant response rating” value [18, 29] was 0. For the same compound, the “S. Flatsedge plant response rating” value [18, 31] was 0, the “Ducksalad plant response rating” value [19, 21] was 0 and the “Ducksalad plant response rating” value [19, 29] was 0. The “Ducksalad plant response rating” value [19, 30] was 0, the “Ducksalad plant response rating” value [19, 31] was 0 and the “Barnyardgrass plant response rating” value [20, 21] was 0. The “Barnyardgrass plant response rating” value [20, 29] was 0, the “Barnyardgrass plant response rating” value [20, 30] was 0 and the “Barnyardgrass plant response rating” value [20, 31] was 0.
